Holding throughout (experiment): Minimal inhibitory concentration (MIC) assay
Assay type in all cases: cell-based

For test [1], the system named is S. aureus BAA-2312 (Sa12). The settings on record: Staphylococcus aureus, BAA2312; S. aureus BAA-2312, antibiotic-resistant strain; read-out: Antimicrobial activity (MIC) Sa12. On the procedure: (§1) Minimal inhibitory concentration (MIC) assay The standard microdilution method recommended by the Clinical and Laboratory Standards Institute (CLSI) was used to determine the MIC of the antibiotics. The starting concentration of compounds was 50 μg/ml and 2-fold dilution was done down the 96 honeycomb well plate column. The MIC assay was conducted in triplicates.

Test [2] deals with Enterococcus faecalis ATCC 29212 (Es12). To be noted: ATCC29212; Enterococcus faecalis ATCC 29212; read-out: Antimicrobial activity (MIC) Es12. On the procedure:
as §1

Test [3] has as its system S. aureus ATCC 700699 (Sa99). To be noted: Staphylococcus aureus, ATCC700699; S. aureus ATCC 700699, antibiotic-resistant strain; read-out: Antimicrobial activity (MIC) Sa99. On the procedure: as §1
The subject of test [4] is S. aureus ATCC 25923 (Sa23). To be noted: Staphylococcus aureus, ATCC25923; S. aureus ATCC 25923, antibiotic susceptible strain; read-out: Antimicrobial activity (MIC) Sa23. The protocol: as §1
Test [5] relates to S. aureus ATCC 33592 (Sa92). To be noted: Staphylococcus aureus, ATCC33592; S. aureus ATCC 33592, antibiotic-resistant strain; read-out: Antimicrobial activity (MIC) Sa92. The protocol: as §1
Test [6] has as its system S. epidermidis 700296 (Se). The settings on record: Staphylococcus epidermidis, S. epidermidis 700296; read-out: Antimicrobial activity (MIC) Se. On the procedure: as §1
In test [7] the test system is B. subtilis ATCC 6623 (Bs). The settings on record: Bacillus subtilis, ATCC6623; B. subtilis ATCC 6623; read-out: Antimicrobial activity (MIC) Bs. The protocol: as §1
In test [8] the test system is S. aureus ATCC 33591 (Sa91). The settings on record: Staphylococcus aureus, ATCC33591; S. aureus ATCC 33591, antibiotic-resistant strain; read-out: Antimicrobial activity (MIC) Sa91. On the procedure: as §1
Test [9] deals with Enterococcus faecium ATCC 700221 (Em21). The settings on record: Enterococcus faecium, ATCC700221, Enterococcus faecium ATCC 700221; read-out: Antimicrobial activity (MIC) Em21. On the procedure: as §1

In brackets after ≈: the same amount, converted by molar mass.

Turning to `C=C(C)[C@@H]1CC=C2c3sc(-c4ccc(OC)cc4)nc3C[C@@H](C)[C@]2(C)C1` [Compound 10, (5R,5aS,7R)-7-isopropenyl-2-(4-methoxyphenyl)-5,5a-dimethyl-5,6,7,8-tetrahydro-4H-benzo[g][1,3]benzothiazole], the MIC (as a rule, the lowest concentration found to suppress growth) in test [1] was 100 µg/mL (≈ 274 µM); in [2], above 100 µg/mL; in [3] it was above 100 µg/mL; in test [4], 50 µg/mL (≈ 137 µM); in [5], above 100 µg/mL; in test [6], above 100 µg/mL. Moreover, the MIC is 50 µg/mL (≈ 137 µM) in test [7], 100 µg/mL (≈ 274 µM) in test [8] and above 100 µg/mL in [9].

For `C=C(C)[C@@H]1CC=C2c3sc(-c4ccc([N+](=O)[O-])cc4)nc3C[C@@H](C)[C@]2(C)C1` [Compound 23, (5R,5aS,7R)-7-isopropenyl-5,5a-dimethyl-2-(4-nitrophenyl)-5,6,7,8-tetrahydro-4H-benzo [g][1,3]benzothiazole], the minimal inhibitory concentration (MIC) in [1], in [2], in test [3], in [5], in test [6] and in [7] was above 100 µg/mL throughout. Further, the minimum inhibitory concentration (MIC) in test [8] and in test [9] was above 100 µg/mL in each case.

On to `C=C(C)[C@@H]1CC=C2c3sc(-c4ccc(C(C)(C)C)cc4)nc3C[C@@H](C)[C@]2(C)C1` [Compound 9, (5R,5aS,7R)-2-(4-tert-butylphenyl)-7-isopropenyl-5,5a-dimethyl-5,6,7,8-tetrahydro-4H-benzo[g][1,3]benzothiazole], for which the MIC in [1], in [2], in test [3], in test [5], in test [6] and in test [7] was above 100 µg/mL each time. Moreover, the MIC in [8] and in [9] was above 100 µg/mL throughout.

`C=C(C)[C@@H]1CC=C2c3sc(-c4ccc(F)cc4)nc3C[C@@H](C)[C@]2(C)C1` [Compound 18, (5R,5aS,7R)-2-(4-fluorophenyl)-7-isopropenyl-5,5a-dimethyl-5,6,7,8-tetrahydro-4H-benzo[g][1,3]benzothiazole]: the MIC in test [1] is 25 µg/mL (≈ 70.7 µM); in test [2], above 100 µg/mL; in test [3], above 100 µg/mL; in [4] it was above 100 µg/mL; in test [5], above 100 µg/mL; in test [6], above 100 µg/mL. The minimum inhibitory concentration (MIC) in test [7] was above 100 µg/mL; in test [8], 50 µg/mL (≈ 141 µM); in [9] it was above 100 µg/mL.

`C=C(C)[C@@H]1CC=C2c3sc(Nc4ccc(F)cc4)nc3C[C@@H](C)[C@]2(C)C1` [Compound 24, (5R,5aS,7R)—N-(4-fluorophenyl)-7-isopropenyl-5,5a-dimethyl-5,6,7,8-tetrahydro-4H-benzo[g][1,3]benzothiazol-2-amine]: the MIC in [1] was above 100 µg/mL; in test [2], above 100 µg/mL; in test [3] it was above 100 µg/mL; in [4], 50 µg/mL (≈ 136 µM); in test [5], above 100 µg/mL; in [6] it was above 100 µg/mL. Also, the MIC was 100 µg/mL (≈ 271 µM) in test [7], above 100 µg/mL in test [8] and above 100 µg/mL in [9].

Consider `C=C(C)[C@@H]1CC=C2c3sc(C4CCOCC4)nc3C[C@@H](C)[C@]2(C)C1` [Compound 5, (5R,5aS,7R)-7-isopropenyl-5,5a-dimethyl-2-tetrahydropyran-4-yl-5,6,7,8-tetrahydro-4H-benzo[g][1,3]benzothiazole], for which the MIC in test [1] was 100 µg/mL (≈ 291 µM); in test [2], above 100 µg/mL; in test [3] it was above 100 µg/mL; in [4], 100 µg/mL (≈ 291 µM); in test [5], 100 µg/mL (≈ 291 µM); in test [6], above 100 µg/mL. The figures for the MIC in [7], in [8] and in [9] were 50 µg/mL (≈ 146 µM), above 100 µg/mL and above 100 µg/mL, respectively.

As for `C=C(C)[C@@H]1CC=C2c3sc(Nc4ccc(F)cc4F)nc3C[C@@H](C)[C@]2(C)C1` [Compound 25, (5R,5aS,7R)—N-(2,4-difluorophenyl)-7-isopropenyl-5,5a-dimethyl-5,6,7,8-tetrahydro-4H-benzo[g][1,3]benzothiazol-2-amine], the MIC was above 100 µg/mL in test [1]; above 100 µg/mL in [2]; above 100 µg/mL in [3]; 100 µg/mL (≈ 259 µM) in test [4]; above 100 µg/mL in test [5]; above 100 µg/mL in test [6]. In addition, the MIC in [7], in test [8] and in test [9] was above 100 µg/mL throughout.

With `C=C(C)[C@@H]1CC=C2c3sc(Nc4cccc(C(F)(F)F)c4)nc3CC[C@]2(C)[C@H]1C` [Compound 28, (5aR,6S,7R)-7-isopropenyl-5a,6-dimethyl-N-[3-(trifluoromethyl)phenyl]-5,6,7,8-tetrahydro-4H-benzo[g][1,3]benzothiazol-2-amine], the minimum inhibitory concentration (MIC) in test [1], in [2], in test [3], in test [5], in [6] and in test [7] was above 100 µg/mL in each case. Besides, the MIC in [8] and in test [9] was above 100 µg/mL in each case.

In the case of `C=C(C)[C@@H]1CC=C2c3sc(-c4ccccc4)nc3C[C@@H](C)[C@]2(C)C1` [Compound 7, (5R,5aS,7R)-7-isopropenyl-5,5a-dimethyl-2-phenyl-5,6,7,8-tetrahydro-4H-benzo[g][1,3]benzothiazole], the MIC in [1], in test [2], in [3], in test [5], in test [6] and in [7] was above 100 µg/mL in each case. In addition, the MIC in test [8] and in test [9] was above 100 µg/mL in each case.

Turning to `C=C(C)[C@@H]1CC=C2c3sc(Nc4ccc(OC(F)(F)F)cc4)nc3C[C@@H](C)[C@]2(C)C1` [Compound 26, (5R,5aS,7R)-7-isopropenyl-5,5a-dimethyl-N-[4-(trifluoromethoxy)phenyl]-5,6,7,8-tetrahydro-4H-benzo[g][1,3]benzothiazol-2-amine], the MIC was above 100 µg/mL in [1]; above 100 µg/mL in test [2]; above 100 µg/mL in test [3]; 50 µg/mL (≈ 115 µM) in test [4]; above 100 µg/mL in test [5]; above 100 µg/mL in test [6]. Also, the MIC was 100 µg/mL (≈ 230 µM) in [7], above 100 µg/mL in [8] and above 100 µg/mL in [9].

`C=C(C)[C@@H]1CC=C2c3sc(-c4ccc(C(F)(F)F)cc4)nc3C[C@@H](C)[C@]2(C)C1` [Compound 22, (5R,5aS,7R)-7-isopropenyl-5,5a-dimethyl-2-[4-(trifluoromethyl)phenyl]-5,6,7,8-tetra-tetrahydro-4H-benzo[g][1,3]benzothiazole]: the minimum inhibitory concentration (MIC) in test [1], in test [2], in test [3], in test [5], in [6] and in test [7] was above 100 µg/mL throughout. The MIC in test [8] and in test [9] was above 100 µg/mL each time.

With `C=C(C)[C@@H]1CC=C2c3sc(-c4ccc(Oc5ccc(C(F)(F)F)cn5)cc4)nc3C[C@@H](C)[C@]2(C)C1` [Compound 12, (5R,5aS,7R)-7-isopropenyl-5,5a-dimethyl-2-[4-[[5-(trifluoromethyl)-2-pyridyl]oxy]phenyl]-5,6,7,8-tetrahydro-4H-benzo[g][1,3]benzothiazole], the MIC in test [1], in test [2], in test [3], in test [5], in [6] and in [7] was above 100 µg/mL throughout. The MIC in [8] and in [9] was above 100 µg/mL in each case.

`C=C(C)[C@@H]1CC=C2c3sc(Nc4ccccc4[N+](=O)[O-])nc3C[C@@H](C)[C@]2(C)C1` [Compound 29, (5R,5aS,7R)-7-isopropenyl-5,5a-dimethyl-N-(2-nitrophenyl)-5,6,7,8-tetrahydro-4H-benzo[g][1,3]benzothiazol-2-amine]: the minimum inhibitory concentration (MIC) in test [1], in [2], in test [3], in [5], in [6] and in test [7] was above 100 µg/mL each time. In addition, the minimal inhibitory concentration (MIC) in test [8] and in test [9] was above 100 µg/mL in each case.

As to `C=C(C)[C@@H]1CC=C2c3sc(Nc4ccccc4C(F)(F)F)nc3C[C@@H](C)[C@]2(C)C1` [Compound 27, (5R,5aS,7R)-7-isopropenyl-5,5a-dimethyl-N-[2-(trifluoromethyl)phenyl]-5,6,7,8-tetrahydro-4H-benzo[g][1,3]benzothiazol-2-amine], the MIC in [1], in test [2], in test [3], in [5], in [6] and in [7] was above 100 µg/mL each time. Besides, the MIC in [8] and in test [9] was above 100 µg/mL in each case.

For the origin of these results see patent US11970473B2, “Nootkatone derivatives and methods of using the same” (Arkansas State University—Jonesboro, priority 2021, dated 2024).
